From ChEMBL document CHEMBL1137135 (Bioorg Med Chem Lett, 2004)

Experiments:
[1] = In vitro inhibitory activity against Factor Xa
Rattus norvegicus = species on record: Rattus norvegicus; experiment: In vitro anticoagulant activity of compound was determined in rat; format: functional
[2] = Binding affinity of compound towards Factor Xa
[3] = Bioavailability in rat; format: ADME, organism-based; conditions: in vivo
[4] = Half-life of compound was determined in rat; format: ADME; conditions: in vivo
[5] = Plasma clearance of compound was determined in rat; format: ADME, organism-based
[6] = Vz of compound was determined in rat; format: ADME, organism-based; conditions: in vivo, read-out: Vz

SMILES | IC50 [1] [nM] | also measured
COCCN(C)Cc1ccccc1-c1ccc(C(=O)N[C@H](CC(=O)Nc2ccc(Br)cn2)C(=O)N2CCCCC2)cc1 | 1.3 | –
NS(=O)(=O)c1ccccc1-c1ccc(C(=O)NCCC(=O)Nc2ccc(Br)cn2)cc1 | 12 | TG 2X lag (Rattus norvegicus): 14 µM; Ki [2]: 7.55 nM; bioavailability [3]: 2.67%; half-life [4]: 1.77 h; clearance [5]: 35 mL/min/kg; Vd [6]: 5.4 L/kg
CN(C)C(=N)c1ccc(C(=O)N[C@H](CC(=O)Nc2ccc(Br)cn2)C(=O)N2CCCCC2)cc1 | 4.6 | –
NS(=O)(=O)c1ccccc1-c1ccc(C(=O)NCCNC(=O)c2cccc(Cl)c2)cc1 | 1500 | –
NS(=O)(=O)c1ccccc1-c1ccc(C(=O)NCCNC(=O)c2ccc(Br)cc2)cc1 | 960 | –
NS(=O)(=O)c1ccccc1-c1ccc(C(=O)NC(CC(=O)Nc2ccc(Br)cn2)C(=O)O)cc1 (stereo not given) | 4.37 | 2X PT (Rattus norvegicus): 74 µM; Ki [2]: 1.72 nM; bioavailability [3]: 4%; half-life [4]: 1 h; clearance [5]: 6.7 mL/min/kg; Vd [6]: 0.6 L/kg
NS(=O)(=O)c1ccccc1-c1ccc(C(=O)NCCNC(=O)c2ccccc2)cc1 | > 10000 | –
NS(=O)(=O)c1ccccc1-c1ccc(NC(=O)C(CC(=O)Nc2ccc(Br)cn2)NC(=O)Nc2ccccc2)cc1 (stereo not given) | 37 | –
CN1CCN=C1c1ccc(C(=O)N[C@H](CC(=O)Nc2ccc(Cl)cn2)C(=O)N2CCCCC2)cc1 | 26 | –
COCCN(C)Cc1ccccc1-c1ccc(C(=O)N[C@@H](CC(=O)Nc2ccc(Cl)cn2)C(=O)N2CCCCC2)cc1 | 9.3 | –
NS(=O)(=O)c1ccccc1-c1ccc(NC(=O)C(CC(=O)Nc2ccc(Br)cn2)NC(=O)c2ccncc2)cc1 (stereo not given) | 43.8 | –
CN(C)C(=N)c1ccc(C(=O)N[C@H](CC(=O)Nc2ccc(Cl)cn2)C(=O)N2CCCCC2)cc1 | 12 | –
CN(C)Cc1ccccc1-c1ccc(C(=O)N[C@H](CC(=O)Nc2ccc(Cl)cn2)C(=O)N2CCCCC2)cc1 | 1.7 | 2X PT (Rattus norvegicus): 1.74 µM; TG 2X lag (Rattus norvegicus): 1 µM; Ki [2]: 0.4 nM; bioavailability [3]: 25.9%; half-life [4]: 1.18 h; clearance [5]: 178 mL/min/kg; Vd [6]: 14 L/kg
CN(C)Cc1nccn1-c1ccc(C(=O)N[C@@H](CC(=O)Nc2ccc(Cl)cn2)C(=O)N2CCCCC2)cc1 | 9.2 | –
CN1CCN=C1c1ccc(C(=O)N[C@@H](CC(=O)Nc2ccc(Cl)cn2)C(=O)N2CCCCC2)cc1 | 28 | –
NS(=O)(=O)c1ccccc1-c1ccc(NC(=O)CCC(=O)Nc2ccc(Br)cn2)cc1 | 20 | –
NS(=O)(=O)c1ccccc1-c1ccc(NC(=O)CCNC(=O)c2ccc(Cl)s2)cc1 | 130 | –
NS(=O)(=O)c1ccccc1-c1ccc(NC(=O)CCC(=O)Nc2ccc(Cl)cc2)cc1 | 12 | –
O=C(C[C@@H](NC(=O)c1ccc(-c2ccccc2CN2CCCC2)cc1)C(=O)N1CCCCC1)Nc1ccc(Br)cn1 | 1 | –
CN1CCN=C1c1ccc(C(=O)N[C@H](CC(=O)Nc2ccc(Br)cn2)C(=O)N2CCCCC2)cc1 | 8.2 | –
O=C(C[C@H](NC(=O)c1ccc(-c2ccccc2CN2CCCC2)cc1)C(=O)N1CCCCC1)Nc1ccc(Cl)cn1 | 2.7 | –
O=C(C[C@@H](NC(=O)c1ccc(-c2ccccc2CN2CCCC2)cc1)C(=O)N1CCCCC1)Nc1ccc(Cl)cn1 | 2 | –

SMILES | IC50 [1] [nM] | also measured
CN(C)Cc1nccn1-c1ccc(C(=O)N[C@@H](CC(=O)Nc2ccc(Br)cn2)C(=O)N2CCCCC2)cc1 | 330 | –
NS(=O)(=O)c1ccccc1-c1ccc(NC(=O)C(CC(=O)Nc2ccc(Br)cn2)NC(=O)C2CCNCC2)cc1 (stereo not given) | 194 | –
CN(C)Cc1nccn1-c1ccc(C(=O)N[C@H](CC(=O)Nc2ccc(Br)cn2)C(=O)N2CCCCC2)cc1 | 3.1 | –
O=C(C[C@H](NC(=O)c1ccc(-c2ccccc2CN2CCOCC2)cc1)C(=O)N1CCCCC1)Nc1ccc(Cl)cn1 | 3.6 | –
O=C(C[C@H](NC(=O)c1ccc(-c2ccccc2CN2CCOCC2)cc1)C(=O)N1CCCCC1)Nc1ccc(Br)cn1 | 290 | –
NS(=O)(=O)c1ccccc1-c1ccc(C(=O)NC(CC(=O)Nc2ccc(Br)cn2)C(=O)N2CCCCC2)cc1 (stereo not given) | 7.6 | 2X PT (Rattus norvegicus): 7 µM; TG 2X lag (Rattus norvegicus): 4.6 µM; Ki [2]: 1.36 nM; bioavailability [3]: 2.7%; half-life [4]: 1.35 h; clearance [5]: 50.6 mL/min/kg; Vd [6]: 5.9 L/kg
O=C(C[C@@H](NC(=O)c1ccc(-c2ccccc2CN2CCOCC2)cc1)C(=O)N1CCCCC1)Nc1ccc(Cl)cn1 | 1.8 | –
NS(=O)(=O)c1ccccc1-c1ccc(NC(=O)CCC(=O)Nc2ccc(Br)cc2)cc1 | 65 | –
NS(=O)(=O)c1ccccc1-c1ccc(NC(=O)CCC(=O)Nc2ccc(Cl)cn2)cc1 | 37 | –
CN(C)Cc1ccccc1-c1ccc(C(=O)N[C@@H](CC(=O)Nc2ccc(Cl)cn2)C(=O)N2CCCCC2)cc1 | 2.9 | 2X PT (Rattus norvegicus): 3.6 µM; TG 2X lag (Rattus norvegicus): 0.96 µM; Ki [2]: 1 nM; bioavailability [3]: 7.9%; half-life [4]: 6.1 h; clearance [5]: 124 mL/min/kg; Vd [6]: 59.2 L/kg
NS(=O)(=O)c1ccccc1-c1ccc(C(=O)NCCNC(=O)c2ccc(Cl)s2)cc1 | 5.7 | –
O=C(C[C@@H](NC(=O)c1ccc(-c2ccccc2CN2CCOCC2)cc1)C(=O)N1CCCCC1)Nc1ccc(Br)cn1 | 1.1 | –
COCCN(C)Cc1ccccc1-c1ccc(C(=O)N[C@H](CC(=O)Nc2ccc(Cl)cn2)C(=O)N2CCCCC2)cc1 | 4.8 | –
COCCN(C)Cc1ccccc1-c1ccc(C(=O)N[C@@H](CC(=O)Nc2ccc(Br)cn2)C(=O)N2CCCCC2)cc1 | 940 | –
CN(C)Cc1nccn1-c1ccc(C(=O)N[C@H](CC(=O)Nc2ccc(Cl)cn2)C(=O)N2CCCCC2)cc1 | 7.6 | –
COc1ccc(C(=O)NCCNC(=O)c2ccc(-c3ccccc3S(N)(=O)=O)cc2)cc1 | 2600 | –
NS(=O)(=O)c1ccccc1-c1ccc(NC(=O)C(CC(=O)Nc2ccc(Br)cn2)NC(=O)c2cccnc2)cc1 (stereo not given) | 47.2 | –
CN(C)Cc1ccccc1-c1ccc(C(=O)N[C@H](CC(=O)Nc2ccc(Br)cn2)C(=O)N2CCCCC2)cc1 | 0.65 | 2X PT (Rattus norvegicus): 1.98 µM; TG 2X lag (Rattus norvegicus): 0.42 µM; Ki [2]: 0.14 nM
O=C(C[C@H](NC(=O)c1ccc(-c2ccccc2CN2CCCC2)cc1)C(=O)N1CCCCC1)Nc1ccc(Br)cn1 | 230 | –
CN(C)C(=N)c1ccc(C(=O)N[C@@H](CC(=O)Nc2ccc(Cl)cn2)C(=O)N2CCCCC2)cc1 | 24 | –
NS(=O)(=O)c1ccccc1-c1ccc(NC(=O)/C=C/C(=O)Nc2ccc(Cl)cc2)cc1 (stereo in doubt; cis) | 67 | –
NS(=O)(=O)c1ccccc1-c1ccc(NC(=O)/C=C/C(=O)Nc2ccc(Cl)cc2)cc1 (stereo in doubt; trans) | > 10000 | –
